Data taken from patent US8829034B2, “Compounds which modulate the CB2 receptor” (Boehringer Ingerlheim International GmbH, priority 2006, dated 2014).
Like-named read-outs stand apart in the source and are kept apart here.

Target: T1, human CB2R (Homo sapiens, UniProt P34972)
T1 construct: host or cells: CHO cells
Assay: CB2R mediated modulation of cAMP synthesis
Format: cell-based
Details: for agonistic activity: found through the use of the above described assays
Method in brief: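 CHO cells expressing human CB2R were treated with compound for 30 min at 37 °C in buffer containing 1 mM IBMX, 0.25% BSA and 10 uM forskolin. cAMP was measured after lysis. EC50 was taken as 50% inhibition of forskolin-stimulated cAMP, with 100% defined by 1 uM CP55940, using a four-parameter logistic fit.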

T1 sequence (P34972 whole entry): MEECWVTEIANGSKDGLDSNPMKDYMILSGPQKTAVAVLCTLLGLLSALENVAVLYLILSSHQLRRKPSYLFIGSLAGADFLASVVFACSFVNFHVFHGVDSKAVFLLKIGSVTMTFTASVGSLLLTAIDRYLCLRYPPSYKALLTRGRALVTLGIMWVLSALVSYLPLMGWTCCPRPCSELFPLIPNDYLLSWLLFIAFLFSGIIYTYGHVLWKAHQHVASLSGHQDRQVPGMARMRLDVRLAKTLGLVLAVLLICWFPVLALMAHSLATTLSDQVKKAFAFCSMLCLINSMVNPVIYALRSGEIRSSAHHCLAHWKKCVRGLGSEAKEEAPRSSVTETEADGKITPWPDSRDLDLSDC

Structure (SMILES) | EC50 [nM] | agonistic activity | EC50 (CHO cells expressing human CB2R, inhibition of forskolin-stimulated cAMP synthesis, compounds having agonist activity, read-out: CB2 EC50) [nM]
CC(C)(C)c1cc(NC(=O)C(C)(C)S(=O)(=O)CC2CCC2)no1 [N-(5-tert-Butyl-isoxazol-3-yl)-2-cyclobutylmethanesulfonyl-2-methyl-propionamide] | 3.4 | agonistic activity | –
CCS(=O)(=O)C(C)(C)C(=O)Nc1cc(C(C)(C)C)on1 [N-(5-tert-Butyl-isoxazol-3-yl)-2-ethanesulfonyl-2-methyl-propionamide] | – | agonistic activity | –
CC(C)(C(=O)Nc1nc(-c2ccc(F)cc2)cs1)S(=O)(=O)CC1CCOCC1 [N-[4-(4-Fluoro-phenyl)-thiazol-2-yl]-2-methyl-2-(tetrahydro-pyran-4-ylmethanesulfonyl)-propionamide] | 5.5 | agonistic activity | –
CC(C)(C(=O)Nc1cccc(C(F)(F)F)c1)S(=O)(=O)CC1CCOCC1 [2-Methyl-2-(tetrahydro-pyran-4-ylmethanesulfonyl)-N-(3-trifluoromethyl-phenyl)-propionamide] | – | agonistic activity | –
CC(C)(C(=O)Nc1nc(C(F)(F)F)cs1)S(=O)(=O)CC1CCOCC1 [2-Methyl-2-(tetrahydro-pyran-4-ylmethanesulfonyl)-N-(4-trifluoromethyl-thiazol-2-yl)-propionamide] | – | agonistic activity | –
CC(C)(C)c1cc(NC(=O)C(C)(C)S(=O)(=O)CC2CCN(S(C)(=O)=O)C2)no1 (stereo not shown) [N-(5-tert-Butyl-isoxazol-3-yl)-2-(1-methanesulfonyl-pyrrolidin-3-ylmethanesulfonyl)-2-methyl-propionamide] | 44.1 | agonistic activity | –
CC(C)(C)c1cc(NC(=O)C(C)(C)S(=O)(=O)CC2CCCCO2)no1 (stereo not shown) [N-(5-tert-Butyl-isoxazol-3-yl)-2-methyl-2-(tetrahydro-pyran-2-ylmethanesulfonyl)-propionamide] | 0.2 | agonistic activity | –
CC(C)(C)c1cc(NC(=O)C(C)(C)S(C)(=O)=O)no1 [N-(5-tert-Butyl-isoxazol-3-yl)-2-methanesulfonyl-2-methyl-propionamide] | – | agonistic activity | –
CC(C)S(=O)(=O)C(C)(C)C(=O)Nc1nc2ccccc2s1 [N-Benzothiazol-2-yl-2-methyl-2-(propane-2-sulfonyl)-propionamide] | – | agonistic activity | –
CC(C)(C)C(=O)CS(=O)(=O)C(C)(C)C(=O)Nc1ccc(C(F)(F)F)cn1 [2-(3,3-Dimethyl-2-oxo-butane-1-sulfonyl)-2-methyl-N-(5-trifluoromethyl-pyridin-2-yl)-propionamide] | 41.5 | agonistic activity | –
CC(C)S(=O)(=O)C(C)(C)C(=O)Nc1nc(-c2ccncc2)cs1 [2-Methyl-2-(propane-2-sulfonyl)-N-(4-pyridin-4-yl-thiazol-2-yl)-propionamide] | – | agonistic activity | –
Cc1nc(NC(=O)C(C)(C)S(=O)(=O)C2CCOCC2)sc1C(C)(C)C [N-(5-tert-Butyl-4-methyl-thiazol-2-yl)-2-methyl-2-(tetrahydro-pyran-4-sulfonyl)-propionamide] | 0.3 | agonistic activity | –
CC(C)S(=O)(=O)C(C)(C)C(=O)Nc1cc2ccccc2cn1 [N-Isoquinolin-3-yl-2-methyl-2-(propane-2-sulfonyl)-propionamide] | – | agonistic activity | –
Cn1nc(C(C)(C)C)cc1NC(=O)C(C)(C)S(=O)(=O)CC1CCCCC1 [N-(5-tert-Butyl-2-methyl-2H-pyrazol-3-yl)-2-cyclohexylmethanesulfonyl-2-methyl-propionamide] | 23.8 | agonistic activity | –
CCC(C)S(=O)(=O)C(C)(C)C(=O)Nc1nc(C(C)(C)C)cs1 (stereo not shown) [2-(Butane-2-sulfonyl)-N-(4-tert-butyl-thiazol-2-yl)-2-methyl-propionamide] | – | agonistic activity | 14.4
CC(C)(C(=O)Nc1ccc(C(F)(F)F)cn1)S(=O)(=O)CC1CCOCC1 [2-Methyl-2-(tetrahydro-pyran-4-ylmethanesulfonyl)-N-(5-trifluoromethyl-pyridin-2-yl)-propionamide] | 72.3 | agonistic activity | –
CCCS(=O)(=O)C(C)(C)C(=O)Nc1ccc(C(C)(C)C)cc1 [N-(4-tert-Butyl-phenyl)-2-methyl-2-(propane-1-sulfonyl)-propionamide] | 12.3 | agonistic activity | –
CC(C)S(=O)(=O)C(C)(C)C(=O)Nc1ccc(C(C)(C)C)cc1 [N-(4-tert-Butyl-phenyl)-2-methyl-2-(propane-2-sulfonyl)-propionamide] | – | agonistic activity | –
CCCS(=O)(=O)C(C)(C)C(=O)Nc1cnc2ccccc2c1 [2-Methyl-2-(propane-1-sulfonyl)-N-quinolin-3-yl-propionamide] | – | agonistic activity | –

Structure (SMILES) | EC50 [nM] | agonistic activity | EC50 (CHO cells expressing human CB2R, inhibition of forskolin-stimulated cAMP synthesis, compounds having agonist activity, read-out: CB2 EC50) [nM]
CCc1ccnc(NC(=O)C(C)(C)S(=O)(=O)CC2CCOCC2)c1 [N-(4-Ethyl-pyridin-2-yl)-2-methyl-2-(tetrahydro-pyran-4-ylmethanesulfonyl)-propionamide] | – | agonistic activity | –
CCCS(=O)(=O)C(C)(C)C(=O)Nc1nc(C)c(C(C)(C)C)s1 [N-(5-tert-Butyl-4-methyl-thiazol-2-yl)-2-methyl-2-(propane-1-sulfonyl)-propionamide] | 7.2 | agonistic activity | –
CC(C)(C)c1csc(NC(=O)C(C)(C)S(=O)(=O)CC2CCOCC2)n1 [N-(4-tert-Butyl-thiazol-2-yl)-2-methyl-2-(tetrahydro-pyran-4-ylmethanesulfonyl)-propionamide] | – | agonistic activity | –
Cc1nc(NC(=O)C(C)(C)S(=O)(=O)Cc2ccc(Cl)cc2)sc1C(C)(C)C [N-(5-tert-Butyl-4-methyl-thiazol-2-yl)-2-(4-chloro-phenylmethanesulfonyl)-2-methyl-propionamide] | 12.1 | agonistic activity | –
CC(C)(C(=O)Nc1ccc(C(F)(F)F)cn1)S(=O)(=O)CC1CCCO1 (stereo not shown) [2-Methyl-2-(tetrahydro-furan-2-ylmethanesulfonyl)-N-(5-trifluoromethyl-pyridin-2-yl)-propionamide] | – | agonistic activity | –
CC(C)CS(=O)(=O)C(C)(C)C(=O)Nc1cc(C(C)(C)C)no1 [N-(3-tert-Butyl-isoxazol-5-yl)-2-methyl-2-(2-methyl-propane-1-sulfonyl)-propionamide] | 1.6 | agonistic activity | –
CC(C)(C)c1cc(NC(=O)C(C)(C)S(=O)(=O)CC2CC2)on1 [N-(3-tert-Butyl-isoxazol-5-yl)-2-cyclopropylmethanesulfonyl-2-methyl-propionamide] | 12.5 | agonistic activity | –
CC(C)(C)c1csc(NC(=O)C(C)(C)S(=O)(=O)C(C)(C)C)n1 [N-(4-tert-Butyl-thiazol-2-yl)-2-methyl-2-(2-methyl-propane-2-sulfonyl)-propionamide] | 61.1 | agonistic activity | –
CCCS(=O)(=O)C(C)(C)C(=O)Nc1nc(C(C)(C)C)cs1 [N-(4-tert-Butyl-thiazol-2-yl)-2-methyl-2-(propane-1-sulfonyl)-propionamide] | 19.2 | agonistic activity | –
Cn1nc(-c2ccccc2)cc1NC(=O)C(C)(C)S(=O)(=O)C1CCOCC1 [2-Methyl-N-(2-methyl-5-phenyl-2H-pyrazol-3-yl)-2-(tetrahydro-pyran-4-sulfonyl)-propionamide] | – | agonistic activity | –
CC(C)(C(=O)Nc1nnc(-c2ccccc2)[nH]1)S(=O)(=O)CC1CCOCC1 [2-Methyl-N-(5-phenyl-4H-1,2,4-triazol-3-yl)-2-(tetrahydro-pyran-4-ylmethanesulfonyl)-propionamide] | 1.7 | agonistic activity | –
CC(C)(C(=O)Nc1ccc(C(F)(F)F)cn1)S(=O)(=O)C1CCOCC1 [2-Methyl-2-(tetrahydro-pyran-4-sulfonyl)-N-(5-trifluoromethyl-pyridin-2-yl)-propionamide] | 62.4 | agonistic activity | –
CCC(C)S(=O)(=O)C(C)(C)C(=O)Nc1cc(C(C)(C)C)no1 (stereo not shown) [2-(Butane-2-sulfonyl)-N-(3-tert-butyl-isoxazol-5-yl)-2-methyl-propionamide] | 3.3 | agonistic activity | –
CC(C)(C)c1cc(NC(=O)C(C)(C)S(=O)(=O)C2CCOCC2)on1 [N-(3-tert-Butyl-isoxazol-5-yl)-2-methyl-2-(tetrahydro-pyran-4-sulfonyl)-propionamide] | 0.1 | agonistic activity | –
CC(C)(C)c1nnc(NC(=O)C(C)(C)S(=O)(=O)C2CCCC2)s1 [N-(5-tert-Butyl-1,3,4-thiadiazol-2-yl)-2-cyclopentanesulfonyl-2-methyl-propionamide] | 18.6 | agonistic activity | –
CC(C)(C(=O)Nc1nsc(-c2ccccc2)n1)S(=O)(=O)CC1CCOCC1 [2-Methyl-N-(5-phenyl-[1,2,4]thiadiazol-3-yl)-2-(tetrahydro-pyran-4-ylmethanesulfonyl)-propionamide] | 17.6 | agonistic activity | –
CC(C)(C)c1cc(NC(=O)C(C)(C)S(=O)(=O)CC2CCCCC2)no1 [N-(5-tert-Butyl-isoxazol-3-yl)-2-cyclohexylmethanesulfonyl-2-methyl-propionamide] | 0.6 | agonistic activity | –
Cc1nc(NC(=O)C(C(C)C)S(=O)(=O)C(C)C)sc1C(C)(C)C (stereo not shown) [N-(5-tert-Butyl-4-methyl-thiazol-2-yl)-3-methyl-2-(propane-2-sulfonyl)-butyramide] | – | agonistic activity | –
CC(C)(C(=O)Nc1cc(C(F)(F)F)ccn1)S(=O)(=O)CC1CCOCC1 [2-Methyl-2-(tetrahydro-pyran-4-ylmethanesulfonyl)-N-(4-trifluoromethyl-pyridin-2-yl)-propionamide] | – | agonistic activity | –
